# In article PMC6864091, “A LONELY GUY protein of Bordetella pertussis with unique features is related to oxidative stress” (Scientific Reports, 2019):
# B1: BP1253 (enzyme, Bordetella pertussis, UniProt Q7VYQ7 1-209, looked up)
# chain: MSEIKTAAEKLADIGPAVSMFGSARISRESPYYETCAAISAALAGAGFAIIAGGGPGIMEAANKGAFEAGGTSVGLNISLPHEAHNNEYQTISLSFEYFYSRKATFFMHSMAYVAMPGGFGTLDELFEALTLIQTGKVPPAPIVLVGSEFWHGLVDWLGEQLLANGMIAAHDLNLFIIEDDPAKVVRKVVEFHDKQGRTDSQYAPSLPA
# notes: also called BpLOG; BP1253-His
# How the values were obtained:
# BP1253 (BpLOG) [1] = target: T1, BP1253 (BpLOG) (Bordetella pertussis, UniProt Q7VYQ7); test: SPR (Biacore T200, steady state, amine-coupled BP1253-His); cleavage also shown by TLC; type: binding
# T1 construct: recombinant BP1253 with C-terminal 6x His tag (BP1253-His)
# BP1253 (BpLOG) [2] = target: T1, BP1253 (BpLOG); test: SPR (data not shown); type: binding
# [3] = target: the molecule itself; test: SEC; analytical SEC, BEH200 column 4.6 x 300 mm, 10 mM NaH2PO4, 400 mM (NH4)2SO4 pH 6.0; samples of 0.62 mg/ml and 3 mg/ml; mass from a calibration curve of standard proteins
Molecule,Kd (BP1253 (BpLOG) [1]) [µM],Kd (BP1253 (BpLOG) [2]) [mM],further results
Nc1ncnc2c1ncn2[C@@H]1O[C@H](COP(=O)(O)O)[C@@H](O)[C@H]1O [AMP],5.7,–,–
Nc1nc2c(ncn2[C@@H]2O[C@H](COP(=O)(O)O)[C@@H](O)[C@H]2O)c(=O)[nH]1 [GMP],38.6,–,–
O=c1ccn([C@@H]2O[C@H](COP(=O)(O)O)[C@@H](O)[C@H]2O)c(=O)[nH]1 [UMP],–,6.1,–
Cc1cn([C@H]2C[C@H](O)[C@@H](COP(=O)(O)O)O2)c(=O)[nH]c1=O [TMP],–,2.4,–
B1,–,–,stoichiometry N [3]: 2
